The values that follow come from US12421254B2, “KRAS modulators and uses thereof” (Quanta Therapeutics, Inc., priority 2023, dated 2025).

Structures are written as SMILES.

One experiment deals with phospho-ERK in AGS cells. The experiment is described as follows: pERK In Cell Western (ICW) assay (Method B), AGS. It is filed as cell-based. The conditions noted are these: Homo sapiens, Table 2, 3 hours. As to the method:
pERK ICW is a high throughput screening assay to evaluate the cellular potency of mutant KRAS small molecule inhibitors. KRAS mutant cell lines AGS, GP2D (KRAS-G12D) as well as SW620 (KRAS-G12V) were purchased from ATCC and maintained respectively in RPMI/DMEM/RPMI medium supplemented with 10% fetal bovine serum.
Cells grown in exponential phase were trypsinized, resuspended in fresh media, and viable cells were counted using a cell counter with Trypan Blue (BioRad TC20). Cells were seeded into 384-well plate (Greiner 781091) at density of 5,000 cells/well for AGS and 10,000 cells/well for GP2D/SW620 and allowed to grow overnight in a 37° C. CO2 incubator. The next day, compounds were dispensed into wells with a ½ log, 9-point serial dilution using a Tecan D300e dispenser and incubated for 3 hours in a 37° C. CO2 incubator. Cells were then fixed with paraformaldehyde (Electron Microscopy Sciences, 15710, 4% final concentration) for 30 min, permeabilized with wash buffer (1×PBS+0.1% Triton X-100) for 30 min and blocked with Odyssey blocking buffer (Li—COR 927-70001) for 1 hour, all at room temperature (RT). Phospho-ERK antibody (CST 4370L) was diluted 1:500 in Odyssey T20 (PBS) antibody diluent (Li—COR 927-75001) and incubated with cells overnight at 4° C. The next day, plates were washed 5× with wash buffer, incubated with IRDye 800 CW, Goat anti-Rabbit secondary antibody (Li—COR 926-32211, 1:800) and DRAQ5 (CST 4084L, 1:5,000) diluted in Odyssey T20 (PBS) antibody diluent for 1 hour, washed 5×, and imaged on an Odyssey CLx imaging system.
For data analysis, signal intensities from 800 (phosphor-ERK) and 700 (DRAQ5) channels were extracted, and phospho-ERK signals were normalized to DRAQ5 signals for each well and percent of blank control values were computed. Data were then imported into Graphpad Prism to compute half-maximal inhibitory concentrations (IC50) using a 4-parameter variable slope model. Z-factor for each plate was computed from signals derived from wells treated with either DMSO or 5 μM of control compound. AGS pERK ICW (Method B) IC50 (uM) values of selected compounds are depicted in Table 2 with compounds having a value ≥0.001 uM to 0.01 uM as ++++; ≥0.01 uM to 0.1 uM as +++; ≥0.1 uM to 1 uM as ++; ≥1 uM to 10 uM as + and ≥10 uM as NA.

Experiment [1] relates to phospho-ERK in SW620 (KRAS-G12V) cells. Nature of the experiment: pERK In Cell Western (ICW) assay (Method B), SW620. The format is cell-based. The conditions noted are these: Homo sapiens, SW-620, 3 h, Table 4. In short, it runs like this:
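Here IC50 reflects phospho-ERK suppression after 3 h compound exposure at 37 °C in cells grown in 10% FBS medium. Signal is normalized to DRAQ5 DNA stain and to blank control wells.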

Regarding `N#Cc1c(N)sc2c1C1(CC2)CN(c2nc(OC[C@@]34CCCN3C[C@H](F)C4)nc(N3CCCC(C#N)C3)n2)C1` (stereo partly drawn) [Compound 13, 2-amino-1′-[4-(3-cyano-1-piperidyl)-6-[[(2R,8S)-2-fluoro-1,2,3,5,6,7-hexahydropyrrolizin-8-yl]methoxy]-1,3,5-triazin-2-yl]spiro[5,6-dihydrocyclopenta[b]thiophene-4,3′-azetidine]-3-carbonitrile], the IC50 – broadly, the concentration that gives 50% inhibition – in the experiment with phospho-ERK in AGS cells was in the range of 1 to 10 µM; in experiment [1], 100 to 1000 nM.
Turning to `C[C@@]1(O)CCCN(c2nc(OC[C@@]34CCCN3C[C@H](F)C4)nc(N3CC4(CCc5sc(N)c(C#N)c54)C3)n2)C1` [Compound 10, 2-amino-1′-[4-[[(2R,8S)-2-fluoro-1,2,3,5,6,7-hexahydropyrrolizin-8-yl]methoxy]-6-[(3R)-3-hydroxy-3-methyl-1-piperidyl]-1,3,5-triazin-2-yl]spiro[5,6-dihydrocyclopenta[b]thiophene-4,3′-azetidine]-3-carbonitrile], the IC50 in the experiment on phospho-ERK in AGS cells lay in the range of 0.1 to 1 µM; in experiment [1] it was 100 to 1000 nM.
In the experiment on phospho-ERK in AGS cells, `N#Cc1c(N)sc2c1C1(CC2)CN(c2nc(OCC34CCCN3CC(F)C4)nc(N3CC4CCC(C3)N4)n2)C1` [Compound 1, 2-amino-1′-[4-(3,8-diazabicyclo[3.2.1]octan-3-yl)-6-[[(2R,8S)-2-fluoro-1,2,3,5,6,7-hexahydropyrrolizin-8-yl]methoxy]-1,3,5-triazin-2-yl]spiro[5,6-dihydrocyclopenta[b]thiophene-4,3′-azetidine]-3-carbonitrile] had a half-inhibitory concentration (IC50) of 0.1 to 1 µM.
As to `N#Cc1c(N)sc2c1C1(CCC2)CN(c2nc(OCC3(CN4CCOCC4)CC3)nc(N3C[C@H]4CC[C@@H](C3)N4)n2)C1` [Compound 3, 2-amino-1′-[4-[(1R,5S)-3,8-diazabicyclo[3.2.1]octan-3-yl]-6-[[1-(morpholinomethyl)cyclopropyl]methoxy]-1,3,5-triazin-2-yl]spiro[6,7-dihydro-5H-benzothiophene-4,3′-azetidine]-3-carbonitrile], the IC50 with phospho-ERK in AGS cells lay within 0.1 to 1 µM.
Molecule `N#Cc1c(N)sc2c1C1(CC2)CN(c2nc(OCC3(CN4CCOCC4)CC3)nc(N3CCCC4(C3)NC(=O)NC4=O)n2)C1` (centres unmarked) [Compound 7, 2-amino-1′-[4-(2,4-dioxo-1,3,9-triazaspiro[4.5]decan-9-yl)-6-[[1-(morpholinomethyl)cyclopropyl]methoxy]-1,3,5-triazin-2-yl]spiro[5,6-dihydrocyclopenta[b]thiophene-4,3′-azetidine]-3-carbonitrile] returned a half-maximal inhibitory concentration (IC50) in experiment [1] of 1000 to 20000 nM.
For the molecule `N#Cc1c(N)sc2c1C1(CC2)CN(c2nc(OCC3(CN4CCOCC4)CC3)nc(N3C[C@H]4CC[C@@H](C3)N4)n2)C1` [Compound 2, 2-amino-1′-[4-[[1-(morpholinomethyl)cyclopropyl]methoxy]-6-[(1R,5S)-3,8-diazabicyclo[3.2.1]octan-3-yl]-1,3,5-triazin-2-yl]spiro[5,6-dihydrocyclopenta[b]thiophene-4,3′-azetidine]-3-carbonitrile], the IC50 with phospho-ERK in AGS cells was 0.1 to 1 µM.
